Results: patent US20240010606A1, “FUMARATE DERIVATIVES AND THEIR MEDICAL USE” (Sitryx Therapeutics Limited, priority 2020, published 2024)

Legend:
hepatocytes [1] = experiment: Hepatocyte stability assay, mouse; format: in vitro ADME; details: 10 μM compound
How it was run: (§1)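 Cryopreserved hepatocytes (viability >70%) at 0.5×10^6 cells/mL in Leibovitz buffer, preincubated 10 min at 37 °C, then compound at 10 μM (0.1% DMSO) in duplicate; buffer-only incubations as control. Samples at 0-60 min quenched in acetonitrile, analysed by LC-MS/MS; half-life and CLint (μL min^−1 10^−6 cells) from ln % remaining versus time.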

[2] = Hepatocyte stability assay, mouse; format: in vitro ADME; details: mouse, cryopreserved hepatocytes, 10 μM compound
How it was run: as §1

IL-1β = experiment: THP-1 AlphaLISA IL-1β cytokine assay; format: cell-based; details: Homo sapiens, differentiated THP-1 cells
How it was run: (§2)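 THP-1 cells differentiated 72 h with PMA, pre-incubated 30 min with compounds, stimulated 24 h with LPS, then 1 h with nigericin, all at 37 °C. Supernatant cytokine measured by AlphaLISA; % inhibition normalised to ±LPS controls and IC50 taken from concentration-response curves.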

hepatocytes [3] = experiment: Hepatocyte stability assay, human; format: in vitro ADME; details: 10 μM compound
How it was run: as §1

[4] = Hepatocyte stability assay, human; format: in vitro ADME; details: cryopreserved hepatocytes, 10 μM compound
How it was run: as §1

IL-6 = experiment: THP-1 AlphaLISA IL-6 cytokine assay; format: cell-based; details: Homo sapiens
How it was run: as §2

NRF2 = NRF2 activation assay (DiscoverX PathHunter NRF2 translocation kit, U2OS cells); format: cell-based
How it was run: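 PathHunter U2OS cells, grown 24 h at 37 °C/5% CO2, treated 6 h with compound; NRF2 nuclear translocation read as enzyme-fragment-complementation chemiluminescence. Activation normalised to dimethyl fumarate high and untreated low controls; EC50 from concentration-response curve.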

[5] = Table 2, compounds of formula (II)
[6] = +GSH, Table 4, compounds of formula (II)
[7] = −GSH, Table 4, compounds of formula (II)
[8] = THP-1, differentiated THP-1 cells, Table 2, compounds of formula (II)
[9] = THP-1, differentiated THP-1 cells, LPS then Nigericin, Table 1
[10] = +GSH, normalised to dimethyl fumarate high control, Table 3
[11] = −GSH, normalised to dimethyl fumarate high control, Table 3

## O=C(O)/C=C/C(=O)OC1(c2ccc(C(F)(F)F)cc2)CCC1 [Intermediate 3, (E)-4-oxo-4-(1-(4-(trifluoromethyl)phenyl)cyclobutoxy)but-2-enoic acid]
Hepatocytes [1]; Table 6
  CIint: +++ (+++ means >15-30)
[2]; Table 6, read-out: T½
  half-life at 10 μM: 30 to 100 min
IL-1β; [5]
  IC50: < 6 µM
Hepatocytes [3]; Table 6
  CIint: ++++ (++++ means 5-15)
[4]; Table 6, read-out: T½
  half-life at 10 μM: > 100 min
IL-6; differentiated THP-1 cells, Table 2, compounds of formula (II)
  IC50: < 6 µM
NRF2; [6]
  EC50: < 23 µM
  NRF2 activation Emax: +++ (+++ means >114-150%)
NRF2; [7]
  EC50: < 23 µM
  NRF2 activation Emax: +++ (+++ means >114-150%)

## O=C(O)/C=C/C(=O)OC1(c2cc(Cl)cc(Cl)c2)CCC1 [Intermediate 14, (E)-4-(1-(3,5-dichlorophenyl)cyclobutoxy)-4-oxobut-2-enoic acid]
Hepatocytes [1]; Table 6
  CIint: ++ (++ means >30-110)
[2]; Table 6, read-out: T½
  half-life at 10 μM: 5 to 29 min
IL-1β; [5]
  IC50: 6 to 30 µM
Hepatocytes [3]; Table 6
  CIint: ++++ (++++ means 5-15)
[4]; Table 6, read-out: T½
  half-life at 10 μM: > 100 min
IL-6; [8]
  IC50: < 6 µM
NRF2; [6]
  EC50: < 23 µM
  NRF2 activation Emax: ++++ (++++ means >150%)
NRF2; [7]
  EC50: < 23 µM
  NRF2 activation Emax: ++++ (++++ means >150%)

## O=C(O)COC(=O)/C=C/C(=O)OC1CCCCCCC1 [Example 1, (E)-2-((4-(cyclooctyloxy)-4-oxobut-2-enoyl)oxy)acetic acid]
Hepatocytes [1]; Table 5
  CIint: + (+ means >277)
[2]; Table 5, read-out: T½
  half-life at 10 μM: < 5 min
IL-1β; LPS then Nigericin, Table 1
  IC50: 2.5 to 6.1 µM
Hepatocytes [3]; Table 5
  CIint: ++++ (++++ means <50)
[4]; Table 5, read-out: T½
  half-life at 10 μM: 30 to 100 min
IL-6; [9]
  IC50: < 2.5 µM
NRF2; +GSH, Table 3
  EC50: 6 to 20 µM
NRF2; [10]
  NRF2 activation Emax: ++ (++ means 100-149)
NRF2; −GSH, Table 3
  EC50: < 2 µM
NRF2; [11]
  NRF2 activation Emax: ++++ (++++ means 200-250%)

## CC(C)(OC(=O)/C=C/C(=O)O)c1ccc(C(F)(F)F)cc1 [Intermediate 21, (E)-4-oxo-4-((2-(4-(trifluoromethyl)phenyl)propan-2-yl)oxy)but-2-enoic acid]
Hepatocytes [1]; Table 6
  CIint: ++++ (++++ means 5-15)
[2]; Table 6, read-out: T½
  half-life at 10 μM: > 100 min
IL-1β; [5]
  IC50: 6 to 30 µM
Hepatocytes [3]; Table 6
  CIint: ++++ (++++ means 5-15)
[4]; Table 6, read-out: T½
  half-life at 10 μM: > 100 min
IL-6; [8]
  IC50: > 100 µM
NRF2; [6]
  EC50: < 23 µM
  NRF2 activation Emax: ++ (++ means >87-114%)
NRF2; +GSH, from repeated experiments, Table 4
  EC50: 23 to 48.4 µM
NRF2; [7]
  EC50: < 23 µM
  NRF2 activation Emax: +++ (+++ means >114-150%)

## O=C(O)CCOC(=O)/C=C/C(=O)OC1CCCCC1 [Example 4, (E)-3-((4-(cyclohexyloxy)-4-oxobut-2-enoyl)oxy)propanoic acid]
Hepatocytes [1]; Table 5
  CIint: + (+ means >277)
[2]; Table 5, read-out: T½
  half-life at 10 μM: < 5 min
IL-1β; LPS then Nigericin, Table 1
  IC50: 2.5 to 6.1 µM
Hepatocytes [3]; Table 5
  CIint: +++ (+++ means 50-149)
[4]; Table 5, read-out: T½
  half-life at 10 μM: 5 to 29 min
IL-6; [9]
  IC50: < 2.5 µM
IL-6; THP-1, from repeated experiments, Table 1
  IC50: 2.5 to 6.1 µM
NRF2; +GSH, Table 3
  EC50: 6 to 20 µM
NRF2; [10]
  NRF2 activation Emax: + (+ means >17.1-99)
NRF2; −GSH, Table 3
  EC50: 2.1 to 6 µM
NRF2; [11]
  NRF2 activation Emax: +++ (+++ means 150-199%)

## O=C(O)/C=C/C(=O)OC1(c2cc(Cl)c(F)c(Cl)c2)CCC1 [Intermediate 25, (E)-4-(1-(3,5-dichloro-4-fluorophenyl)cyclobutoxy)-4-oxobut-2-enoic acid]
Hepatocytes [1]; Table 6
  CIint: ++ (++ means >30-110)
[2]; Table 6, read-out: T½
  half-life at 10 μM: 30 to 100 min
IL-1β; [5]
  IC50: 6 to 30 µM
Hepatocytes [3]; Table 6
  CIint: +++ (+++ means >15-30)
[4]; Table 6, read-out: T½
  half-life at 10 μM: > 100 min
IL-6; [8]
  IC50: < 6 µM
NRF2; [6]
  EC50: < 23 µM
  NRF2 activation Emax: ++ (++ means >87-114%)
NRF2; [7]
  EC50: < 23 µM
  NRF2 activation Emax: ++++ (++++ means >150%)

## O=C(O)COC(=O)/C=C/C(=O)OC1CCCCC1 [Example 2, (E)-2-((4-(cyclohexyloxy)-4-oxobut-2-enoyl)oxy)acetic acid]
Hepatocytes [1]; Table 5
  CIint: ++ (++ means 200-277)
[2]; Table 5, read-out: T½
  half-life at 10 μM: 5 to 10 min
IL-1β; LPS then Nigericin, Table 1
  IC50: 9.3 to 14.3 µM
Hepatocytes [3]; Table 5
  CIint: ++++ (++++ means <50)
[4]; Table 5, read-out: T½
  half-life at 10 μM: 30 to 100 min
IL-6; [9]
  IC50: 6.2 to 9.2 µM
NRF2; +GSH, Table 3
  EC50: 20 to 100 µM
NRF2; [10]
  NRF2 activation Emax: + (+ means >17.1-99)
NRF2; −GSH, Table 3
  EC50: 2.1 to 6 µM
NRF2; [11]
  NRF2 activation Emax: ++++ (++++ means 200-250%)

## O=C(O)/C=C/C(=O)OC1(c2ccc(C(F)(F)F)c(Cl)c2)CCC1 [Intermediate 26, (E)-4-(1-(3-chloro-4-(trifluoromethyl)phenyl)cyclobutoxy)-4-oxobut-2-enoic acid]
Hepatocytes [1]; Table 6
  CIint: ++ (++ means >30-110)
[2]; Table 6, read-out: T½
  half-life at 10 μM: 30 to 100 min
IL-1β; [5]
  IC50: < 6 µM
Hepatocytes [3]; Table 6
  CIint: +++ (+++ means >15-30)
[4]; Table 6, read-out: T½
  half-life at 10 μM: 30 to 100 min
IL-6; [8]
  IC50: < 6 µM
NRF2; [6]
  EC50: < 23 µM
  NRF2 activation Emax: ++ (++ means >87-114%)
NRF2; [7]
  EC50: < 23 µM
  NRF2 activation Emax: +++ (+++ means >114-150%)
